# Source: patent US11802131B2, “Glutarimides for medical treatment” (C4 Therapeutics, Inc., priority 2017, dated 2023)
# Target: hCereblon(M1-L442)_hDDB1(M1-H1140) (Homo sapiens (Human), UniProt Q96SW2)
# Assay: Fluorescence direct binding protocol (tryptophan fluorescence titration)
# Settings: 20° C., excited at 280 nm, recorded at 340 nm, assay buffer 50 mM Hepes 7.4 200 mM NaCl; read-out: Fluorescence h-Cereblon_DDB1 Mean Kd_EQ
# Experimental: Fluorescence Direct Binding Protocol
# Determination of the affinities of compounds to protein containing one or more tryptophan is measurable by monitoring the fluorescence emission in direct mode. The measurements depending on the protein available amounts are performed either manually in a cuvette on ISS-PC1 photon counting spectrofluorometer or automatically in well plates on a fluorescence plate reader device. Fluorescence titrations are performed at 20° C. in the chosen binding assay buffer by using a defined constant protein concentration against ligand concentration variations. Small aliquots of known ligand concentration solubilized in DMSO were added and the fluorescence, excited at 280 nm, was recorded at 340 nm. The fluorescence intensity was corrected for protein dilution and for the filter effect (Birdsall et al.^72).
# 1) Optimization of measurement parameters to minimize protein consumption and to minimize the dilution effect and the DMSO content
# 2) Titration measurements of the protein against ligand by at least 12 titration steps to obtain a good s-curve fit
# 3) Repeat the same titration measurements with the ligand alone to enable correction
# 4) Check the stability of the protein once by titration against DMSO alone
# 5) Determination of the molar extinction coefficients of the ligand at 280 and 340 nm with help of an UV-spectrophotometer
# 6) Use Excel template for the correction of the measured raw data
# 7) Use GraphPad Prism software for the quadratic binding fit and the KD evaluation.
# Chain of hCereblon(M1-L442)_hDDB1(M1-H1140) (Q96SW2 whole entry): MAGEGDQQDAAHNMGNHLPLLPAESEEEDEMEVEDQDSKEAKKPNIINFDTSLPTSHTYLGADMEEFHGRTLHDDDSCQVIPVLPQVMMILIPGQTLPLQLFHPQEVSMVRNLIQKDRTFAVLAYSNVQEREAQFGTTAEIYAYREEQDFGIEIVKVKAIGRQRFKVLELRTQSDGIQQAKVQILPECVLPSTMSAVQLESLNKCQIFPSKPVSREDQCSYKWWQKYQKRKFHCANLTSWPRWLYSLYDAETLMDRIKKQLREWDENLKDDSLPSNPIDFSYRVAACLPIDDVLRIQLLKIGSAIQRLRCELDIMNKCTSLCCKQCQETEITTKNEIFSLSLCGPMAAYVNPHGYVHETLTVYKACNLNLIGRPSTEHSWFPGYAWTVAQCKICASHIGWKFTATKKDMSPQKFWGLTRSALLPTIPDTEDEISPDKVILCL
# Chain of hCereblon(M1-L442)_hDDB1(M1-H1140) (Q16531 whole entry partner): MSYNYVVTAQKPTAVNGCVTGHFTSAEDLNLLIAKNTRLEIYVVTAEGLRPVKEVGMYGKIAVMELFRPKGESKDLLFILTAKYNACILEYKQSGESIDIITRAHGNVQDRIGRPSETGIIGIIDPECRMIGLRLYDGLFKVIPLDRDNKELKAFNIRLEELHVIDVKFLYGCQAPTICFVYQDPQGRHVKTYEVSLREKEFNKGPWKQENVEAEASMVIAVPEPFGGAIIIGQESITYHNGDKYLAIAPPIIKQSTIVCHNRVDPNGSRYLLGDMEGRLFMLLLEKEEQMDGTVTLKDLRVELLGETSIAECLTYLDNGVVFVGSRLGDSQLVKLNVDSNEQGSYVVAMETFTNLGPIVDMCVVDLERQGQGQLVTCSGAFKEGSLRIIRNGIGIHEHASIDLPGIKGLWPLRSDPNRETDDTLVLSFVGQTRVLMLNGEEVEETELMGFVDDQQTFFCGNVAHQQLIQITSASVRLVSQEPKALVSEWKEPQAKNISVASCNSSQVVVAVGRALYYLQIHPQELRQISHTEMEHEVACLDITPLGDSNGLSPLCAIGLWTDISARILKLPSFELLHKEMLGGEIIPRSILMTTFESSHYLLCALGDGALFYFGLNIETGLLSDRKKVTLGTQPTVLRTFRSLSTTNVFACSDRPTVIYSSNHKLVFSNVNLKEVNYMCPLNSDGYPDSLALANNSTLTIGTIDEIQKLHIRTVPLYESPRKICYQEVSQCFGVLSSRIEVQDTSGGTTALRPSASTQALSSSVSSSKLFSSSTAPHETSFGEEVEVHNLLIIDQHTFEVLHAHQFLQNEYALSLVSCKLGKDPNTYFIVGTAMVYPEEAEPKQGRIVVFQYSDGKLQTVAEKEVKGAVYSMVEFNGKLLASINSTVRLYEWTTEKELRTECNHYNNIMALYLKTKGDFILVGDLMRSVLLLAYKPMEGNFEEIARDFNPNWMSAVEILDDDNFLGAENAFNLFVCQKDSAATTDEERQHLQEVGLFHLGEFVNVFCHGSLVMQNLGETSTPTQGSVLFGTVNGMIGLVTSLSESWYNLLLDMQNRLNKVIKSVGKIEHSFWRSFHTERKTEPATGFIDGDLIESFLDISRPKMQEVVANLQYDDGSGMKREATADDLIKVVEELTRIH
row,Structure (SMILES),Kd [nM]
1,"O=C1CCC(NC(=O)C2CCc3ccccc32)C(=O)N1 (stereo not shown) [Example 6, N-(2,6-Dioxopiperidin-3-yl)-2,3-dihydro-1H-indene-1-carboxamide]",146
2,"O=C1CC[C@H](NC(=O)c2c[nH]c3ccccc23)C(=O)N1 [Example 17, (S)-N-(2,6-Dioxopiperidin-3-yl)-1H-indole-3-carboxamide]",14
3,"CN(C(=O)c1c[nH]c2ccccc12)C1CCC(=O)NC1=O (stereo not shown) [Example 16, N-(2,6-Dioxopiperidin-3-yl)-N-methyl-1H-indole-3-carboxamide]",3
4,"O=C1CC[C@@H](NC(=O)[C@H]2CCCc3ccccc32)C(=O)N1 [Example 26, (S)-N-((R)-2,6-Dioxopiperidin-3-yl)-1,2,3,4-tetrahydronaphthalene-1-carboxamide]",6
5,"CCCN1Cc2ccccc2C1C(=O)NC1CCC(=O)NC1=O (stereo not shown) [Example 3, N-(2,6-Dioxopiperidin-3-yl)-2-propylisoindoline-1-carboxamide]",57
6,"O=C1CCC(NC(=O)N2CCc3ccccc32)C(=O)N1 (stereo not shown) [Example 9, N-(2,6-Dioxopiperidin-3-yl)indoline-1-carboxamide]",2
7,"O=C1CC[C@H](NC(=O)Cc2ccccc2)C(=O)N1 [Example 1, (S)-N-(2,6-Dioxo-3-piperidinyl)benzeneacetamide]",27
8,"O=C1CC[C@@H](NC(=O)c2csc3ccccc23)C(=O)N1 [Example 24, (R)-N-(2,6-Dioxopiperidin-3-yl)benzo[b]thiophene-3-carboxamide]",9
9,"O=C1CC[C@H](NC(=O)N2CCCc3ccccc32)C(=O)N1 [Example 28, (S)-N-(2,6-Dioxopiperidin-3-yl)-3,4-dihydroquinoline-1(2H)-carboxamide]",4
10,"O=C1CCC(NC(=O)C2CCc3ccccc32)C(=O)N1 (single isomer, unassigned; (+)) [Example 5, (+)-N-(2,6-Dioxopiperidin-3-yl)-2,3-dihydro-1H-indene-1-carboxamide]",197
11,"O=C1CC[C@H](NC(=O)c2csc3ccccc23)C(=O)N1 [Example 25, (S)-N-(2,6-Dioxopiperidin-3-yl)benzo[b]thiophene-3-carboxamide]",23
12,"O=C1CC[C@H](NC(=O)[C@H]2CCCc3ccccc32)C(=O)N1 [Example 27, (S)-N-((S)-2,6-Dioxopiperidin-3-yl)-1,2,3,4-tetrahydronaphthalene-1-carboxamide]",3
13,"O=C1CCC(NC(=O)C2CCCC2)C(=O)N1 (stereo not shown) [Example 11, N-(2,6-Dioxopiperidin-3-yl)cyclopentanecarboxamide]",12
14,"O=C1CCC(NC(=O)c2c[nH]c3ccccc23)C(=O)N1 (stereo not shown) [Example 7, N-(2,6-Dioxopiperidin-3-yl)-1H-indole-3-carboxamide]",28
15,"O=C1CCC(NC(=O)C2CCc3ccccc32)C(=O)N1 (racemic) [Example 2, N-(2,6-Dioxopiperidin-3-yl)-2,3-dihydro-1H-indene-1-carboxamide]",655
16,"Cn1cc(C(=O)NC2CCC(=O)NC2=O)c2ccccc21 (stereo not shown) [Example 8, N-(2,6-Dioxopiperidin-3-yl)-1-methyl-1H-indole-3-carboxamide]",30

# Second part, the compound after the results:
row,Kd [nM],Structure (SMILES)
1,967,"O=C1CC[C@H](NC(=O)Cc2cccnc2)C(=O)N1 [Example 61, (S)-N-(2,6-Dioxopiperidin-3-yl)-2-(pyridin-3-yl)acetamide]"
2,641,"O=C1CC[C@@H](NC(=O)N2CCCc3cccnc32)C(=O)N1 [Example 64, (R)-N-(2,6-Dioxopiperidin-3-yl)-3,4-dihydro-1,8-naphthyridine-1(2H)-carboxamide]"
3,< 1,"O=C1CC[C@H](NC(=O)[C@H]2CCNc3ccccc32)C(=O)N1 [Example 32, (4S)-N-[(3S)-2,6-Dioxopiperidin-3-yl]-1,2,3,4-tetrahydroquinoline-4-carboxamide]"
4,60,"CC(=O)Nc1cccc(CC(=O)N[C@H]2CCC(=O)NC2=O)c1 [Example 68, (S)-2-(3-Acetamidophenyl)-N-(2,6-dioxopiperidin-3-yl)acetamide]"
5,37,"Cc1sc2c(c1C)C(c1ccc(Cl)cc1)=N[C@@H](CC(=O)NCCCCCC(=O)N1CC[C@H](C(=O)N[C@@H]3CCC(=O)NC3=O)c3ccccc31)c1nnc(C)n1-2 [Example B, (4S)-1-[6-[[2-[(9S)-7-(4-Chlorophenyl)-4,5,13-trimethyl-3-thia-1,8,11,12-tetrazatricyclo[8.3.0.02,6]trideca-2(6),4,7,10,12-pentaen-9-yl]acetyl]amino]hexanoyl]-N-[(3R)-2,6-dioxo-3-piperidyl]-3,4-dihydro-2H-quinoline-4-carboxamide]"
6,6,"O=C1CC[C@H](NC(=O)c2ccc3ccccn23)C(=O)N1 [Example 52, (S)-N-(2,6-Dioxopiperidin-3-yl)indolizine-3-carboxamide]"
7,28,"CN1C(=O)CCC(NC(=O)[C@H]2CCCc3ccccc32)C1=O (stereo partly drawn) [Example 73, (1S)-N-(1-Methyl-2,6-dioxopiperidin-3-yl)-1,2,3,4-tetrahydronaphthalene-1-carboxamide]"
8,< 1,"O=C1CC[C@@H](NC(=O)c2cnn3ccccc23)C(=O)N1 [Example 48, (R)-N-(2,6-Dioxopiperidin-3-yl)pyrazolo[1,5-a]pyridine-3-carboxamide]"
9,19,"O=C1CC[C@@H](NC(=O)Cc2cccnc2)C(=O)N1 [Example 63, (R)-N-(2,6-Dioxopiperidin-3-yl)-2-(pyridin-3-yl)acetamide]"
10,< 1,"O=C1CC[C@H](NC(=O)C2CCNc3ccccc32)C(=O)N1 (stereo partly drawn) [Example 37, N-[(3S)-2,6-Dioxo-3-piperidyl]-1,2,3,4-tetrahydroquinoline-4-carboxamide]"
11,5,"CN1CCC(C(=O)N[C@H]2CCC(=O)NC2=O)c2ccccc21 (stereo partly drawn) [Example 38, N-[(3S)-2,6-Dioxo-3-piperidyl]-1-methyl-3,4-dihydro-2H-quinoline-4-carboxamide]"
12,20,"CN(C(=O)N1CCc2ccccc21)[C@H]1CCC(=O)NC1=O [Example 59, (S)-N-(2,6-Dioxopiperidin-3-yl)-N-methylindoline-1-carboxamide]"
13,5,"O=C1CC[C@H](NC(=O)C2CCOc3ccccc32)C(=O)N1 (stereo partly drawn) [Example 31, N-[(3S)-2,6-Dioxo-3-piperidyl]chromane-4-carboxamide]"
14,8,"O=C1CC[C@H](NC(=O)c2cnn3cccnc23)C(=O)N1 [Example 56, (S)-N-(2,6-Dioxopiperidin-3-yl)pyrazolo[1,5-a]pyrimidine-3-carboxamide]"
15,2,"O=C1CC[C@@H](NC(=O)c2ccc3ccccn23)C(=O)N1 [Example 53, (R)-N-(2,6-Dioxopiperidin-3-yl)indolizine-3-carboxamide]"
16,4,"Cn1nc(C(=O)N[C@H]2CCC(=O)NC2=O)c2c1CCN(C(=O)OC(C)(C)C)C2 [Example 71, tert-Butyl (S)-3-((2,6-dioxopiperidin-3-yl)carbamoyl)-1-methyl-1,4,6,7-tetrahydro-5H-pyrazolo[4,3-c]pyridine-5-carboxylate]"
17,14,"O=C1CC[C@@H](NC(=O)C2CCOc3ccccc32)C(=O)N1 (stereo partly drawn) [Example 41, N-[(3R)-2,6-Dioxo-3-piperidyl]chromane-4-carboxamide]"
18,19,"O=C1CC[C@@H](NC(=O)N2CCCc3ccccc32)C(=O)N1 [Example 35, (R)-N-(2,6-Dioxopiperidin-3-yl)-3,4-dihydroquinoline-1(2H)-carboxamide]"
19,< 1,"O=C1CC[C@H](NC(=O)N2CCc3cccnc32)C(=O)N1 [Example 29, (S)-N-(2,6-Dioxopiperidin-3-yl)-2,3-dihydro-1H-pyrrolo[2,3-b]pyridine-1-carboxamide]"
20,26,"O=C1CC[C@@H](NC(=O)c2coc3ccccc23)C(=O)N1 [Example 34, (R)-N-(2,6-Dioxopiperidin-3-yl)benzofuran-3-carboxamide]"
21,18,"COC(=O)c1ccc2c(C(=O)N[C@H]3CCC(=O)NC3=O)c[nH]c2c1 [Example 42, Methyl (S)-3-((2,6-dioxopiperidin-3-yl)carbamoyl)-1H-indole-6-carboxylate]"
